Tests used:
[1] = target: RAC-alpha serine/threonine-protein kinase (Homo sapiens, UniProt P31749); assay: Inhibition of AKT1 expressed in Escherichia coli or baculovirus-infected insect cells by scintillation proximity assay
[2] = target: Mitogen-activated protein kinase 14 (Homo sapiens, UniProt Q16539); assay: Inhibition of p38alpha expressed in Escherichia coli or baculovirus-infected insect cells by TR-FRET assay
[3] = target: T1, Inhibitor of nuclear factor kappa-B kinase subunit beta (Homo sapiens, UniProt O14920); assay: biochemical; type: cell-based
T1 sequence (O14920 whole entry): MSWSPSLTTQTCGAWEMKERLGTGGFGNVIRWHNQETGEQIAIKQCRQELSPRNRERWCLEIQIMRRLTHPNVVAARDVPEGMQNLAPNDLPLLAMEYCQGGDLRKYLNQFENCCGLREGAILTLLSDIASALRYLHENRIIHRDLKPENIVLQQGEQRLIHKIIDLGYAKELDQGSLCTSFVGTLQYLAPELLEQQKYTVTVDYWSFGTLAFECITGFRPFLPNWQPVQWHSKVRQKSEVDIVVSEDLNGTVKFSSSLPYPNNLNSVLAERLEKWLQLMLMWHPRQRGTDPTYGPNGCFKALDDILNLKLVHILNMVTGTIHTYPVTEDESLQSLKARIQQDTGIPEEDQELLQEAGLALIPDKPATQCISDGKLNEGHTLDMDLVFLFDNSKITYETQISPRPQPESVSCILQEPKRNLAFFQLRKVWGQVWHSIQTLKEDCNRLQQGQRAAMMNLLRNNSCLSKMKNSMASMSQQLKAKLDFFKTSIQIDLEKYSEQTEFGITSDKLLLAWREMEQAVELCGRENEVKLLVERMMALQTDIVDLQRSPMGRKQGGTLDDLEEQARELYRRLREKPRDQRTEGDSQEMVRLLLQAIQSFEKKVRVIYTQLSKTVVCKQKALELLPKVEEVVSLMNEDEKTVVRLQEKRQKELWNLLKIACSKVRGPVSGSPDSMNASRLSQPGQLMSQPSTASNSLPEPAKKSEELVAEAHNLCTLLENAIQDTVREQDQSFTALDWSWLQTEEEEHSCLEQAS

[4] = target: Tyrosine-protein kinase SYK (Homo sapiens, UniProt P43405); assay: Inhibition of SYK expressed in Escherichia coli or baculovirus-infected insect cells by TR-FRET assay
[5] = target: Mitogen-activated protein kinase 8 (Homo sapiens, UniProt P45983); assay: Inhibition of JNK1 expressed in Escherichia coli or baculovirus-infected insect cells by TR-FRET assay
Sequence of Mitogen-activated protein kinase 8 (P45983 whole entry): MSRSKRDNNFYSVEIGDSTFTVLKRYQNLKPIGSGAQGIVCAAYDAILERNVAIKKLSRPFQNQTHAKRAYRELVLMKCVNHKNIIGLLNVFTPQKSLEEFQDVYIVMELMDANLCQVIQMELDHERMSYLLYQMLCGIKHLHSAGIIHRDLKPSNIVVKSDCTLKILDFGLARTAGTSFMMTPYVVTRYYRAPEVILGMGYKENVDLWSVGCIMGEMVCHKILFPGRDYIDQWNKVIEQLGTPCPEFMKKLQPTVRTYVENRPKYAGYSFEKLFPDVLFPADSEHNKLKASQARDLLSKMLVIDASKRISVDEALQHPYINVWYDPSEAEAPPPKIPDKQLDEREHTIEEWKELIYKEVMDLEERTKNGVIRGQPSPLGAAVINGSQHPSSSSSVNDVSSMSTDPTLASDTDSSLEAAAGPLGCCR

Sequence of RAC-alpha serine/threonine-protein kinase (P31749 whole entry): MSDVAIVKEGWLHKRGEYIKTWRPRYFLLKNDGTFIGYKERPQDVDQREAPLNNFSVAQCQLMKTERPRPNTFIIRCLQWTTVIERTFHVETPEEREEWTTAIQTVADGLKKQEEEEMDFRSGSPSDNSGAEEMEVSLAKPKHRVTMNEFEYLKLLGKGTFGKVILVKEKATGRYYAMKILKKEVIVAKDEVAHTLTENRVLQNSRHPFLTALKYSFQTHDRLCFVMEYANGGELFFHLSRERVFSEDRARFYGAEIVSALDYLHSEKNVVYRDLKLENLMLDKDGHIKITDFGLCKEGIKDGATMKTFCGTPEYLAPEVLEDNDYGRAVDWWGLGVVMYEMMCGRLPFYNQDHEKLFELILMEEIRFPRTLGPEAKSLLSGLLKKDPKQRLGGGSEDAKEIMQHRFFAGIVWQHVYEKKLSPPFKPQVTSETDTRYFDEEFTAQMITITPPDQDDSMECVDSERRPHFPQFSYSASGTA
Sequence of Mitogen-activated protein kinase 14 (Q16539 whole entry): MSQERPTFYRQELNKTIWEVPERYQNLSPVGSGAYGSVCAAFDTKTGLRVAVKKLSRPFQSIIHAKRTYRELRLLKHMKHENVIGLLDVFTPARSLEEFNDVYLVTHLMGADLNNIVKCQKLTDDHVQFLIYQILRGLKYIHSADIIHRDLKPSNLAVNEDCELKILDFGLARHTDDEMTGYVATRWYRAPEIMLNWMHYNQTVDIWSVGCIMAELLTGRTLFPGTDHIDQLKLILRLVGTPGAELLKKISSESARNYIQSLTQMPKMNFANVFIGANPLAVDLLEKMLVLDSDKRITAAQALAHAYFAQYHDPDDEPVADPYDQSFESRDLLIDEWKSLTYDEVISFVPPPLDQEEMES

| IC50 ([2]; read-out: IC50) [µM] | IC50 ([2]; read-out: pIC50 (converted)) [µM] | IC50 ([3]; read-out: IC50) [µM] | IC50 ([3]; read-out: pIC50 (converted)) [µM] | IC50 [4] [µM] | IC50 ([5]; read-out: IC50) [µM] | IC50 ([5]; read-out: pIC50 (converted)) [µM] | SMILES | IC50 ([1]; read-out: IC50) [µM] | IC50 ([1]; read-out: pIC50 (converted)) [µM] |
| --- | --- | --- | --- | --- | --- | --- | --- | --- | --- |
|  |  |  |  |  |  |  | c1ccc2[nH]ncc2c1 [INDAZOLE] | > 400 | > 398 |
| > 667 | > 631 | > 667 | > 631 |  |  |  | c1ccc(Nc2ncccn2)cc1 |  |  |
|  |  |  |  | > 660 |  |  | O=C(Nc1ccccc1)Nc1ccccc1 |  |  |
|  |  | > 667 | > 631 |  | > 667 | > 631 | c1cnc2[nH]ccc2c1 | > 400 | > 398 |
